{"source": "patent US12697331B2", "about": "“Methods of use of T-type calcium channel modulators” (PRAXIS PRECISION MEDICINES, INC., priority 2020, dated 2026)", "key": {"essential tremor": {"test_system": "essential tremor", "conditions": "cited from earlier work; for Efficacy for treating essential tremors in clinical trials: adverse effects led to patient discontinuance"}, "[1]": {"conditions": "cited from earlier work"}, "[2]": {"test": "Phase 1 single and multiple ascending doses of formulation 3: safety and tolerability", "assay_type": "in vivo, human", "conditions": "single 60 mg, 6 healthy volunteers, no titration", "description": "This was a 2-part, Phase 1 double blind, placebo controlled trial to assess the safety, tolerability, pharmacokinetics, and pharmacodynamics (including the KSS, the KDT, the SQSQ and 24-hour EEG recordings), of single, ascending (Part A: 20, 40, and 60 mg) and multiple, ascending (Part B: 20 and 40 mg for 8 days) doses of the 20 mg tablet (formulation 3) in healthy participants. […] Variability in Cmax and AUC increased with increasing dose following a single oral dose of the 20 mg tablet formulation (formulation 3) (FIG. 16).\nAdverse events for the doses of 20 and 40 mg were transient and occurred at a rate similar to placebo. The following TEAEs were observed, all of which were mild to moderate: […]"}, "[3]": {"test": "Within-participant escalating dose trial Part A (5, 10, 20 mg): plasma pharmacokinetics", "assay_type": "in vivo, human", "description": "(§1) In Part A, an open label trial was conducted."}, "[4]": {"test": "Within-participant escalating dose trial Part A: safety and tolerability (TEAEs)", "assay_type": "in vivo, human", "description": "as §1"}, "[5]": {"test": "Within-participant escalating dose trial Part B: safety and tolerability (TEAEs)", "assay_type": "in vivo, human"}, "[6]": {"test": "Within-participant escalating dose trial Part B (20-120 mg titration): pharmacokinetics", "conditions": "titrated dosing schedule"}, "[7]": {"conditions": "28-day essential tremor study (WO 2020/072773)"}}, "data": [{"smiles": "NS(=O)(=O)Cc1noc2ccccc12", "note": "[zonisamide]", "values": [{"measurement": "Efficacy for treating essential tremors in clinical trials", "setting": "essential tremor", "value": "effective"}]}, {"smiles": "CC(C)c1ccc(CC(=O)N[C@H](C)c2ccc(OCC(F)(F)F)cn2)cc1", "note": "[CX-8998]", "values": [{"measurement": "Discontinuation due to intolerability of adverse events", "setting": "essential tremor; [7]", "value": 17, "unit": "%"}, {"measurement": "Discontinuation rate", "setting": "essential tremor; [7]", "value": 23, "unit": "%"}, {"measurement": "Titrated daily dose reached", "setting": "[1]; Papapetropoulos et al. 2019, 2021", "value": 20, "unit": "mg"}, {"measurement": "Highest non-titrated dose safely administered to patients", "setting": "[1]; single doses, WO 2020/072773", "value": 16, "unit": "mg"}]}, {"smiles": "CC1(C)O[C@@H]2[C@@H](CO[C@@]3(COS(N)(=O)=O)OC(C)(C)O[C@@H]23)O1", "note": "[topiramate]", "values": [{"measurement": "Efficacy for treating essential tremors in clinical trials", "setting": "essential tremor", "value": "effective"}]}, {"smiles": "CC(C)(C)NC(=O)CN1CCC(CNC(=O)c2cc(F)cc(Cl)c2)CC1", "note": "[compound of formula (I), N-((1-(2-(tert-butylamino)-2-oxoethyl)piperidin-4-yl)methyl)-3-chloro-5-fluorobenzamide]", "values": [{"measurement": "Tolerability", "setting": "[2]", "value": "not tolerated"}, {"measurement": "Time the compound remained quantifiable in plasma", "setting": "[3]; 5 mg dose, 24 hour sampling period", "value": "≥ 24", "unit": "h"}, {"measurement": "Time by which plasma concentrations were quantifiable", "setting": "[3]; single 5 mg dose, healthy volunteers", "value": "≤ 0.50", "unit": "h"}, {"measurement": "Participants with at least one TEAE", "setting": "[4]; 5 mg (N = 8)", "value": "5 (62.5%) n (%)"}, {"measurement": "TEAE: Dry eye", "setting": "[4]; 5 mg (N = 8)", "value": "1 (12.5%) n (%)"}, {"measurement": "TEAE: Eye disorders", "setting": "[4]; 5 mg (N = 8)", "value": "2 (25.0%) n (%)"}, {"measurement": "TEAE: General Disorders and Administration Site Conditions", "setting": "[4]; 5 mg (N = 8)", "value": "3 (37.5%) n (%)"}, {"measurement": "TEAE: Headache", "setting": "[4]; 5 mg (N = 8)", "value": "2 (25.0%) n (%)"}, {"measurement": "TEAE: Lethargy", "setting": "[4]; 5 mg (N = 8)", "value": "1 (12.5%) n (%)"}, {"measurement": "TEAE: Medical device site dermatitis", "setting": "[4]; 5 mg (N = 8)", "value": "1 (12.5%) n (%)"}, {"measurement": "TEAE: Nervous System Disorders", "setting": "[4]; 5 mg (N = 8)", "value": "2 (25.0%) n (%)"}, {"measurement": "TEAE: Vessel puncture site thrombosis", "setting": "[4]; 5 mg (N = 8)", "value": "1 (12.5%) n (%)"}, {"measurement": "Participants with at least one TEAE", "setting": "[4]; 10 mg (N = 8)", "value": "5 (62.5%) n (%)"}, {"measurement": "TEAE: Dry eye", "setting": "[4]; 10 mg (N = 8)", "value": "2 (25.0%) n (%)"}, {"measurement": "TEAE: Eye disorders", "setting": "[4]; 10 mg (N = 8)", "value": "2 (25.0%) n (%)"}, {"measurement": "TEAE: General Disorders and Administration Site Conditions", "setting": "[4]; 10 mg (N = 8)", "value": "3 (37.5%) n (%)"}, {"measurement": "TEAE: Headache", "setting": "[4]; 10 mg (N = 8)", "value": "0 n (%)"}, {"measurement": "TEAE: Lethargy", "setting": "[4]; 10 mg (N = 8)", "value": "0 n (%)"}, {"measurement": "TEAE: Medical device site dermatitis", "setting": "[4]; 10 mg (N = 8)", "value": "2 (25.0%) n (%)"}, {"measurement": "TEAE: Nervous System Disorders", "setting": "[4]; 10 mg (N = 8)", "value": "0 n (%)"}, {"measurement": "TEAE: Vessel puncture site thrombosis", "setting": "[4]; 10 mg (N = 8)", "value": "1 (12.5%) n (%)"}, {"measurement": "Participants with at least one TEAE", "setting": "[4]; 20 mg (N = 8)", "value": "3 (37.5%) n (%)"}, {"measurement": "TEAE: Dry eye", "setting": "[4]; 20 mg (N = 8)", "value": "0 n (%)"}, {"measurement": "TEAE: Eye disorders", "setting": "[4]; 20 mg (N = 8)", "value": "0 n (%)"}, {"measurement": "TEAE: General Disorders and Administration Site Conditions", "setting": "[4]; 20 mg (N = 8)", "value": "1 (12.5%) n (%)"}, {"measurement": "TEAE: Headache", "setting": "[4]; 20 mg (N = 8)", "value": "1 (12.5%) n (%)"}, {"measurement": "TEAE: Medical device site dermatitis", "setting": "[4]; 20 mg (N = 8)", "value": "0 n (%)"}, {"measurement": "TEAE: Nervous System Disorders", "setting": "[4]; 20 mg (N = 8)", "value": "1 (12.5%) n (%)"}, {"measurement": "TEAE: Vessel puncture site thrombosis", "setting": "[4]; 20 mg (N = 8)", "value": "0 n (%)"}, {"measurement": "Participants with at least one TEAE", "setting": "[4]; Overall (N = 8)", "value": "7 (87.5%) n (%)"}, {"measurement": "TEAE: Dry eye", "setting": "[4]; Overall (N = 8)", "value": "3 (37.5%) n (%)"}, {"measurement": "TEAE: Eye disorders", "setting": "[4]; Overall (N = 8)", "value": "3 (37.5%) n (%)"}, {"measurement": "TEAE: Headache", "setting": "[4]; Overall (N = 8)", "value": "3 (37.5%) n (%)"}, {"measurement": "TEAE: Lethargy", "setting": "[4]; Overall (N = 8)", "value": "2 (25.0%) n (%)"}, {"measurement": "TEAE: Medical device site dermatitis", "setting": "[4]; Overall (N = 8)", "value": "3 (37.5%) n (%)"}, {"measurement": "TEAE: Nervous System Disorders", "setting": "[4]; Overall (N = 8)", "value": "3 (37.5%) n (%)"}, {"measurement": "TEAE: Vessel puncture site thrombosis", "setting": "[4]; Overall (N = 8)", "value": "2 (25.0%) n (%)"}, {"measurement": "Participants with at least one TEAE", "setting": "[5]; human, in vivo, 31 days", "value": "12 (100%)^ n (%)"}, {"measurement": "TEAE: Cardiac Disorders", "setting": "[5]; human, in vivo, 31 days", "value": "4 (33.3%) n (%)"}, {"measurement": "TEAE: Chest discomfort", "setting": "[5]; human, in vivo, 31 days", "value": "2 (16.7%) n (%)"}, {"measurement": "TEAE: Dizziness", "setting": "[5]; human, in vivo, 31 days", "value": "3 (25.0%) n (%)"}, {"measurement": "TEAE: General Disorders and Administration Site Conditions", "setting": "[5]; human, in vivo, 31 days", "value": "6 (50.0%) n (%)"}, {"measurement": "TEAE: Headache", "setting": "[5]; human, in vivo, 31 days", "value": "2 (16.7%) n (%)"}, {"measurement": "TEAE: Intoxicated sensation", "setting": "[5]; human, in vivo, 31 days", "value": "2 (16.7%) n (%)"}, {"measurement": "TEAE: Medical device site dermatitis", "setting": "[5]; human, in vivo, 31 days", "value": "3 (25.0%) n (%)"}, {"measurement": "TEAE: Nervous System Disorders", "setting": "[5]; human, in vivo, 31 days", "value": "5 (41.7%) n (%)"}, {"measurement": "TEAE: Palpitations", "setting": "[5]; human, in vivo, 31 days", "value": "2 (16.7%) n (%)"}, {"measurement": "SAEs and severe AEs", "setting": "[5]; in vivo", "value": "no SAEs and no severe AEs"}, {"measurement": "Dose levels well-tolerated with a titrated dosing schedule", "setting": "[5]; titration 20 to 120 mg per day, no maximum tolerated dosage identified", "value": "≤ 120", "unit": "mg per day"}, {"measurement": "Increase of Cmax and AUC24 above values of a lower dosage not tolerated without titration", "setting": "[6]", "value": "2-3 fold"}]}]}
